Structures are written as SMILES.

The nature of the first series: logP determination via retention times, calibrated with unbranched alkan-2-ones. In kind it is physicochemical. The following applies: method **: HPLC, reversed-phase C 18, 43° C., mobile phase 0.1% aqueous phosphoric acid and acetonitrile, linear gradient from 10% to 95% acetonitrile.
Turning to `FS(F)(F)(F)(F)c1cccc(Nc2ncc(Cl)c(NC3CC3)n2)c1` [compound 1052], the logP is given as 3.7**.

The series is the same for the next values; noted with them: method *: HPLC, reversed-phase C 18, 40° C., mobile phase 0.1% aqueous formic acid and acetonitrile, linear gradient from 10% to 95% acetonitrile.
On to `CCCCCc1ccc(Nc2ncc(Cl)c(NC3CC3)n2)cc1` [compound 1048], for which the logP was 3.55*. The same measure, in the same setting: next, `CCN(CC)C(=O)c1cccc(Nc2ncc(C(F)(F)F)c(NC3CC3)n2)c1` [compound 1049]: 2.71*; `COCc1cc(Nc2ncc(Cl)c(NC3CC3)n2)ccc1OC` [compound 1050]: 1.55*. On the same count and under the same terms, next, `Cc1cccc(Nc2ncc(Cl)c(NCC3CC3)n2)c1` [compound 1051]: 2.09*; `Fc1ccc(Nc2ncc(Cl)c(NC3CC3)n2)cc1OC(F)F` [compound 1053]: 2.62*. Consider `CCCCSc1cccc(Nc2ncc(Cl)c(NC3CC3)n2)c1` [compound 1054], for which the logP is 3.78*. On to `CN(c1nc(Nc2cccc(N3CCOC3=O)c2)ncc1Cl)C1CC1` [compound 1055], for which the logP is reported as 2.13*. In the case of `CCc1cccc(Nc2ncc(Cl)c(N(C)C3CC3)n2)c1` [compound 1058], the logP is recorded as 3.65*. On the same count and under the same terms, the result for `CN1CCN(C(=O)c2cccc(Nc3ncc(Cl)c(NC4CC4)n3)c2)CC1` [compound 1059] reads 0.59*; that for `CCN(C)C(=O)c1cccc(Nc2ncc(Cl)c(NC3CC3)n2)c1` [compound 1060], 1.56*. The same measure, in the same setting: next, `COCC1CCCN1C(=O)c1cccc(Nc2ncc(Cl)c(NC3CC3)n2)c1` (centres unmarked) [compound 1061]: 1.77*; `CC1CCCN1C(=O)c1cccc(Nc2ncc(Cl)c(NC3CC3)n2)c1` (centres unmarked) [compound 1062]: 1.86*.

As for `O=C(c1cccc(Nc2ncc(Cl)c(NC3CC3)n2)c1)N1CCC1` [compound 1063], the logP is listed as 1.43*. Same read-out and setting: next, `COCCN(C)C(=O)c1cccc(Nc2ncc(Cl)c(NC3CC3)n2)c1` [compound 1064]: 1.46*; `O=C(c1cccc(Nc2ncc(Cl)c(NC3CC3)n2)c1)N1CCNCC1` [compound 1065]: 0.53*; `Clc1cnc(Nc2cccc(C3CCCC3)c2)nc1NC1CC1` [compound 1066]: 3.18*. For `O=C(c1cccc(Nc2ncc(Cl)c(NC3CC3)n2)c1)N1CCSCC1` [compound 1067], the logP is 1.8*. Same read-out and setting: next, `CCCS(=O)(=O)c1cccc(Nc2ncc(C(F)(F)F)c(NCC3CC3)n2)c1` [compound 1068]: 3.25*. Same read-out and setting: next, `Brc1cnc(Nc2ccccc2)nc1NC1CC1` [compound 1069]: 2.65*.
